Experimental data published in US20180010188A1, “METHOD FOR DETECTING NONSENSE-MEDIATED RNA DECAY” (The Regents of the University of California, priority 2016, published 2018).

What was measured:
Type in all cases: cell-based, mouse
polysome integrity = experiment: Polysome fractionation by sucrose density gradient centrifugation; details: 5 hours, DMSO 30
Experimental: In addition to altering gene expression via the IRE1-Xbp1s signaling pathway to retain homeostasis, ER stress also reduces global protein synthesis (Harding et al., 1999. Nature 397: 271-274; Ron D. 2002. J Clin Invest 110: 1383-1388; Wek et al., 2006. Biochem Soc Trans 34: 7-11). The dose of thapsigargin inhibiting NMD was as low as 20 nM, whereas according to the literature, thapsigargin has been widely used at 1 μM to induce ER stress. To assess whether the NMD-inhibiting thapsigargin doses also repressed translation, we performed ribosome fractionation using sucrose density gradient centrifugation and examined polysome integrity as an indicator of translational activity. […] The heavier polysomes (>4 ribosomes) were affected the most and further collapsed with increasing doses of thapsigargin. Polysome disintegration was also accompanied by increasing optical density values of 80S. To quantify the dose effect of thapsigargin, we drew a line from the peak of the disome to the peak of the polysome consisting of roughly 8 ribosomes based on relative elution time. We measured the angle of this line relative to a horizontal line through the disome peak and used the angle as an indicator of polysome integrity. This angle was 30 for DMSO-treated cells and decreased to 0, −18, −20, −30 and −40 in response to increasing thapsigargin concentrations of 0.01, 0.02, 0.05, 0.1 and 0.2 μM, respectively.
For polysome fractionation, 1.5×10^7 N2a cells in 20 ml N2a complete media were plated on 150 mm petri dishes overnight and treated with varying concentrations of thapsigargin the next day. Cycloheximide (Fisher Scientific, cat. no. 50490338) was added at a concentration of 100 μg/ml, and the cells were incubated for 10 min at 37° C. before lysate collection. The cells were washed twice with 10 ml cold 1×PBS containing 100 μg/ml cycloheximide then collected in 4 ml of the same cold PBS solution. The cells were lysed with 0.5 ml lysis buffer (20 mM Tris pH 7.5, 100 mM KCl, 5 mM MgCl2, 2 mM DTT, 100 μg/ml cycloheximide, 1% Triton X-100, 50 u/ml RNaseout and 1×EDTA-free protease inhibitor cocktail). Roughly 400 μl ([…]) of lysate was loaded onto premade sucrose gradients (60% to 15%) and balanced (within 0.5 mg) before ultracentrifugation at 4° C. and 237,000 g (50,000 rpm for a SW55 Ti rotor) for 1.5 hours. Products were carefully removed from the ultracentrifuge and fractionated with the apparatus consisting of the gradient fractionator (Brandel SYN-202), the ISCO absorbance detector (ISCO # UA-6, Lincoln, Nebr.) and the fraction collector (R1 Fraction Collector) at 2.0 sensitivity and 150 cm/h chart speed to record absorbance data and collect fractionations.

[1] = system: cryptic isoforms of A230046K03Rik, Mib1 and Usp15; experiment: Quantitative analysis of TDP-43-repressed cryptic exon splicing
Source text: To investigate the possible compounding effect of ER stress on TDP-43-mediated cryptic isoforms, we examined the expression of TDP-43-repressed cryptic exons with and without thapsigargin treatment. We designed specific PCR primers flanking the previously reported cryptic exons of A230046K03Rik, Mib1 and Usp15 and performed capillary electrophoresis to measure the ratios of the cryptic isoforms to the normal isoforms. The splicing of cryptic exons was not detected in cells treated with control siRNA or DMSO but was drastically boosted by RNAi-mediated depletion of Tdp-43 (FIGS. 5A-E).
Neuro-2a (N2a) cells were maintained in N2a complete media consisting of L-glutamine-free Dulbecco's modified Eagle's medium (DMEM), 10% FBS and 1× GlutaMAX at 37° C. Thapsigargin (VWR, cat. no. 89161-410), ionomycin (Fisher Scientific, cat. no. AG-CN2-0416-M001) and ouabain octahydrate (Fisher Scientific, cat. no. 80055-364) were dissolved in DMSO and stored at −80° C. […]
We optimized the PCR cycle numbers for Psd-95 (28 cycles), A230046K03Rik, Mib1 and Usp15 and eventually used 29 cycles for relative quantification of the transcript isoforms. […] The molar abundance (nM) of each isoform was quantified using QIAxcel Screengel software v1.4. Splicing of the cryptic exon was determined using the following formula. […]

core NMD factors = experiment: Expression of core NMD factors after thapsigargin; details: 5 hours after thapsigargin treatment (data not shown)
Source text: Thapsigargin is a non-competitive inhibitor of the sarco/endoplasmic reticulum Ca^2+ ATPase (SERCA) (Wictome et al., 1992. Biochem J 283 (Pt 2): 525-529; Lytton et al., 1991. J Biol Chem 266: 17067-17071). Thapsigargin treatment increases intracellular Ca^2+ concentration, which stimulates various Ca^2+ dependent signaling pathways. In fact, Nickless et al. recently reported that intracellular calcium inhibited NMD after administration of thapsigargin (Nickless et al. 2014. Nat Med 20: 961-966). Thapsigargin also induces ER stress. […] The diverging mechanisms reported by these studies were both based on the traditional NMD reporter approach and gene-centric validation. We therefore investigated which of the proposed mechanisms our independent method would support.

SMILES: C/C=C(/C)C(=O)O[C@H]1C(C)=C2[C@H]([C@@H]1OC(=O)CCCCCCC)[C@@](C)(OC(C)=O)C[C@H](OC(=O)CCC)[C@@]1(O)[C@H]2OC(=O)[C@@]1(C)O [thapsigargin]
- angle of disome-to-8-ribosome peak line (polysome integrity) (polysome integrity; 0.01 μM): 0
- angle of disome-to-8-ribosome peak line (polysome integrity) (polysome integrity; 0.02 μM): −18
- angle of disome-to-8-ribosome peak line (polysome integrity) (polysome integrity; 0.05 μM): −20
- angle of disome-to-8-ribosome peak line (polysome integrity) (polysome integrity; 0.1 μM): −30
- angle of disome-to-8-ribosome peak line (polysome integrity) (polysome integrity; 0.2 μM): −40
- level of cryptic isoforms in mock-transfected or control siRNA-transfected cells ([1]; 0.2 μM thapsigargin): no effect
- level of cryptic isoforms in TDP-43-deficient cells ([1]; 0.2 μM thapsigargin after siTdp43): further increased
- expression of core NMD factors (core NMD factors): no changes in their expression
